From article PMC3340335, “Differential Scanning Fluorometry Signatures as Indicators of Enzyme Inhibitor Mode of Action: Case Study of Glutathione S-Transferase” (PLoS ONE, 2012)
Where two headings read alike, the source gives them in different places.

What was measured:
SjGST [1] = biological target: T1, SjGST (Schistosoma japonicum, UniProt P08515); test: biochemical; assay type: binding; details: for ΔTm at 200 µM / Difference in thermal shift between GSH-present (2 mM) and GSH-absent curves at top compound concentration: 200 µM compound; for ΔTm at 200 µM / Difference in thermal shift between GSH-present (2 mM) and GSH-absent curves across compound concentrations / Difference in thermal shift between GSH-present (2 mM) and GSH-absent curves at top compound concentration: 2 mM GSH versus no GSH; for ΔTm at 200 µM: read-out: Difference in thermal shift between GSH-present (2 mM) and GSH-absent curves at top compound concentration; for Thermal shift (ΔTm versus vehicle control) of SjGST: absence of GSH, top compound concentration, 200 µM, 1 µM SjGST; for Difference in thermal shift between GSH-present (2 mM) and GSH-absent curves across compound concentrations: across all concentrations up to 200 µM
T1 construct: purchased GenScript (Piscataway, NJ)
Method: Compounds were diluted (1∶2, 7-points) in DMSO row-wise down to 10 µM in a 96-well polypropylene round bottom mother plate, with DMSO alone in the first column of each plate. […] The PCR plates were centrifuged at 1000 rpm for 10 s to ensure good mixing, and sealed with Optical-Quality Sealing Tape (Bio-Rad). […] The mid temperature of the protein thermal melt profiles, Tm, was determined using EXCEL-based custom calculation software available at (ftp://ftp.sgc.ox.ac.uk/pub/biophysics), and fitting of the data to the Boltzmann equation was performed using GraphPad Prism 4. The differences in Tm between vehicle control and compound-containing samples were calculated as thermal shift.

SjGST [2] = biological target: T1, SjGST; test: SjGST luciferase-coupled luminescence enzymatic assay (PBI 1155 substrate, 100 µM GSH); assay type: biochemical; details: for inhibition at 58 µM: read-out: % Inhibition at 58 μM against SjGST
Method: Compound inhibitory activities were evaluated using a previously reported GST enzymatic assay. Three µl of reagents (5 nM final concentration of SjGST (or buffer serving as a no-enzyme control) plus 100 µM final concentration of GSH) were dispensed into 1536-well Greiner white solid-bottom assay plates. Compounds (23 nL) were transferred via Kalypsys pintool equipped with 1,536-pin array. The plates were incubated at room temperature for 15 min before the addition of 20 µM substrate PBI 1155 to initiate the reaction. The plates were centrifuged at 1000 rpm for 15 s and incubated at room temperature for 40 min before the addition 4 µl luciferin detection reagent followed by another 15-s centrifugation at 1000 rpm and 15-min incubation. The plates were then read on ViewLux high-throughput CCD imager (PerkinElmer, Waltham, MA) with a clear emission filter and under standard luminescence settings. Percent inhibition was calculated based on the enzyme-containing and no-enzyme controls using Excel and GraphPad Prism 4.

hGST A1-1 = biological target: T2, hGST A1-1 (Homo sapiens, UniProt P08263); test: Thermal shift assay (DSF) with hGST A1-1; assay type: binding; details: concentration-response, Fig. 7A-C
T2 construct: purchased Oxford Biomedical Research (Oxford, MI)
T2 sequence (P08263 1-222): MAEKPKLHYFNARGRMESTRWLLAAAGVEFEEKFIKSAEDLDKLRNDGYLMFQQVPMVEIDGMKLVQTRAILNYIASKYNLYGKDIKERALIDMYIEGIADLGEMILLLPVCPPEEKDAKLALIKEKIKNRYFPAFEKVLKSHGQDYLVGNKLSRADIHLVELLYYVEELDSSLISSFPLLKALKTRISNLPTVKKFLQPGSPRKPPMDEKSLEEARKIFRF
Method: (§1) Compounds were diluted (1∶2, 7-points) in DMSO row-wise down to 10 µM in a 96-well polypropylene round bottom mother plate, with DMSO alone in the first column of each plate. […] The PCR plates were centrifuged at 1000 rpm for 10 s to ensure good mixing, and sealed with Optical-Quality Sealing Tape (Bio-Rad). The plates were subsequently heated approximately 2 min after sample mixing, on an iQ5 thermal cycler at intervals of 1°C from 20 to 95°C, with a ramping rate of 6°C min^−1. The set-up of the filter configurations was customized to accommodate the optimal excitation and emission wavelengths for SYPRO Orange (Ex: 490/Em: 575 nm). The mid temperature of the protein thermal melt profiles, Tm, was determined using EXCEL-based custom calculation software available at (ftp://ftp.sgc.ox.ac.uk/pub/biophysics), and fitting of the data to the Boltzmann equation was performed using GraphPad Prism 4. The differences in Tm between vehicle control and compound-containing samples were calculated as thermal shift.
(§2) The study was subsequently extended to human GST isozymes by testing one representative compound from each category against hGST A1 and M1 (hGST P1 was not pursued due to the protein's lack of clear melt transition, data not shown).

hGST M1-1 = biological target: T3, hGST M1-1 (Homo sapiens, UniProt P09488); test: Thermal shift assay (DSF) with hGST M1-1; assay type: binding; details: concentration-response, Fig. 7D-F
T3 construct: purchased Oxford Biomedical Research (Oxford, MI)
T3 sequence (P09488 1-218): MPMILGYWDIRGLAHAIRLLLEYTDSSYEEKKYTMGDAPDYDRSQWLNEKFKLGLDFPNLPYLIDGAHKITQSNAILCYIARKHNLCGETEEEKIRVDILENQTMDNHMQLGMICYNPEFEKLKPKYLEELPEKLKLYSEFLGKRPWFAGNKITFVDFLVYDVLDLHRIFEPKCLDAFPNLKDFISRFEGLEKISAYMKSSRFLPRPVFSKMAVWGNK
Method: as §1, §2

[3] = 5 nM SjGST, 100 µM GSH, 20 µM PBI 1155, read-out: IC50 against SjGST

T1 sequence (P08515 whole entry): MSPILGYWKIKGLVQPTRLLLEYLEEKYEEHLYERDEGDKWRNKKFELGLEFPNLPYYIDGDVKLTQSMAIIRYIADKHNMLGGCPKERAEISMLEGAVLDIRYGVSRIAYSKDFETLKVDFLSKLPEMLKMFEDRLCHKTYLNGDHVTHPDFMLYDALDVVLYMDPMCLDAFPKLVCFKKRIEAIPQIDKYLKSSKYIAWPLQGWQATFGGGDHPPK

SMILES: NC(CCC(=O)NC(CSc1ccc(C(=O)OCCOCCOCCOCCOC(=O)c2ccc(SCC(NC(=O)CCC(N)C(=O)O)C(=O)NCC(=O)O)c([N+](=O)[O-])c2)cc1[N+](=O)[O-])C(=O)NCC(=O)O)C(=O)O (stereo not shown) [Bis-(NB-GS)]
- ΔTm at 200 µM (SjGST [1]): 1.2 °C
- Thermal shift (ΔTm versus vehicle control) of SjGST (SjGST [1]): 11.1 °C
- IC50 (SjGST [2]; [3]): 0.67 µM
- Fold greater inhibitory potency of Bis-(NB-GS) versus NBD-GS (SjGST [2]; ratio of IC50 values, 0.67 µM versus 2.3 µM): over 3 fold

SMILES: C=C(CC)C(=O)c1ccc(OCC(=O)O)c(Cl)c1Cl [Ethacrynic acid, ethacrynic acid]
- Glutathione-dependency trend of thermal shift curves (with versus without 2 mM GSH) (hGST A1-1): diverging trend
- ΔTm at 200 µM (SjGST [1]): 11.5 °C
- Thermal shift (ΔTm versus vehicle control) of SjGST (SjGST [1]): 1.8 °C
- IC50 (SjGST [2]; [3]): 0.14 µM
- Glutathione-dependency trend of thermal shift curves (with versus without 2 mM GSH) (hGST M1-1): diverging trend

SMILES: N[C@@H](CCC(=O)N[C@@H](CS)C(=O)NCC(=O)O)C(=O)O [GSH, γ-Glu-Cys-Gly]
- ΔTm at 2000 µM (SjGST [1]; 2 mM GSH, at low compound concentrations, read-out: Enhancement in thermal shift baseline due to GSH): ~4 °C

SMILES: O=c1c(O)c(-c2cc(O)c(O)c(O)c2)oc2cc(O)cc(O)c12 [Myricetin, myricetin]
- Thermal shift (ΔTm versus vehicle control) of SjGST (SjGST [1]): over 3 °C
- Difference in thermal shift between GSH-present (2 mM) and GSH-absent curves across compound concentrations (SjGST [1]): approximately 4 °C
- IC50 (SjGST [2]): 6.6 µM

SMILES: O=[N+]([O-])c1ccc(SCCCCCCCCO)c2nonc12 [NBD-8-OH]
- ΔTm at 200 µM (SjGST [1]): 10.5 °C
- Thermal shift (ΔTm versus vehicle control) of SjGST (SjGST [1]): failed to display any significant thermal stabilization effect
- IC50 (SjGST [2]; [3]): 0.66 µM

SMILES: NC(CCC(=O)NC(CSc1ccc([N+](=O)[O-])c2nonc12)C(=O)NCC(=O)O)C(=O)O (stereo not shown) [NBD-GS]
- ΔTm at 200 µM (SjGST [1]): 4 °C
- Thermal shift (ΔTm versus vehicle control) of SjGST (SjGST [1]): 5.9 °C
- IC50 (SjGST [2]; [3]): 2.3 µM

SMILES: O=c1c(O)c(-c2ccc(O)c(O)c2)oc2cc(O)cc(O)c12 [Quercetin, quercetin]
- Glutathione-dependency trend of thermal shift curves (with versus without 2 mM GSH) (hGST A1-1): parallel trend
- Thermal shift (ΔTm versus vehicle control) of SjGST (SjGST [1]): over 3 °C
- Difference in thermal shift between GSH-present (2 mM) and GSH-absent curves across compound concentrations (SjGST [1]): approximately 4 °C
- IC50 (SjGST [2]; [3]): 5 µM
- Glutathione-dependency trend of thermal shift curves (with versus without 2 mM GSH) (hGST M1-1): parallel trend

SMILES: CCCCSC[C@H](NC(=O)CC[C@H](N)C(=O)O)C(=O)NCC(=O)O [S-butyl GSH, S-butyl glutathione]
- Difference in thermal shift between GSH-present (2 mM) and GSH-absent curves at top compound concentration (SjGST [1]): 1.8 °C
- inhibition at 58 µM (SjGST [2]): 35%

SMILES: CCCCCCSC[C@H](NC(=O)CC[C@H](N)C(=O)O)C(=O)NCC(=O)O [S-hexyl GSH, S-hexyl glutathione]
- Difference in thermal shift between GSH-present (2 mM) and GSH-absent curves at top compound concentration (SjGST [1]): 1.8 °C
- inhibition at 58 µM (SjGST [2]): 58%

SMILES: CSC[C@H](NC(=O)CC[C@H](N)C(=O)O)C(=O)NCC(=O)O [S-methyl GSH, S-methyl glutathione]
- Thermal shift (ΔTm versus vehicle control) of SjGST (SjGST [1]): < 2 °C
- Inhibition of SjGST at concentrations up to 200 µM (SjGST [2]; tested up to 200 µM): did not show detectable inhibition

SMILES: CCCCCCCCSC[C@H](NC(=O)CC[C@H](N)C(=O)O)C(=O)NCC(=O)O [S-octyl GSH, S-octyl glutathione]
- Glutathione-dependency trend of thermal shift curves (with versus without 2 mM GSH) (hGST A1-1): converging trend
- Difference in thermal shift between GSH-present (2 mM) and GSH-absent curves at top compound concentration (SjGST [1]): 0.45 °C
- inhibition at 58 µM (SjGST [2]): 83%
- Glutathione-dependency trend of thermal shift curves (with versus without 2 mM GSH) (hGST M1-1): converging trend
